Assay results as given in patent US20230089867A1, “CYCLIC PENTAMER COMPOUNDS AS PROPROTEIN CONVERTASE SUBTILISIN/KEXIN TYPE 9 (PCSK9) INHIBITORS FOR THE TREATMENT OF METABOLIC DISORDER” (Novartis AG, priority 2018, published 2023).
pIC50: −log10 of the molar value.

Target: human PCSK9 (Homo sapiens, UniProt Q8NBP7)
Assay: PCSK9 ligand binding TR-FRET assay (interference with binding of human PCSK9 to human LDLR)
Settings: for Max % inhibition: PCSK9 FRET assay, efficacy (Amax), 100% = 1 uM unlabeled human PCSK9, 0% = DMSO; for pIC50: TR-FRET, human PCSK9 Alexa Fluor 647 / human LDLR extracellular domain-Europium Kryptate, read-out: PCSK9 FRET Assay IC50
Method in brief: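 Threefold compound dilutions were pre-incubated 30 min with PCSK9, after which 4 nM Europium Kryptate-tagged human LDLR ectodomain was added for a further 2 h.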

Sequence of human PCSK9 (Q8NBP7 153-692): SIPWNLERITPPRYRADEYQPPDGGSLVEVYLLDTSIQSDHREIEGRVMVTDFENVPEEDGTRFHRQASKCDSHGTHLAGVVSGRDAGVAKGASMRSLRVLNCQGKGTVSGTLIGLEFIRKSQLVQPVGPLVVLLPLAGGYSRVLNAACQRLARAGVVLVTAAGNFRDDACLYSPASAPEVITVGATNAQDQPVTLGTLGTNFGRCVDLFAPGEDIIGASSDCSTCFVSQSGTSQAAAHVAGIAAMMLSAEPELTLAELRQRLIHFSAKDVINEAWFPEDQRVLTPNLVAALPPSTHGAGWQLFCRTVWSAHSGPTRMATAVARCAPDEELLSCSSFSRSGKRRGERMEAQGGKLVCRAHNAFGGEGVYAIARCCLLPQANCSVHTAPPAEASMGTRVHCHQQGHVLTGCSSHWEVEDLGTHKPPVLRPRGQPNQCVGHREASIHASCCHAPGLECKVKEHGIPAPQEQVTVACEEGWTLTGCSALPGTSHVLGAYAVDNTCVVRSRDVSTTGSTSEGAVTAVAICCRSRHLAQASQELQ
Sequence of human PCSK9 (Q8NBP7 31-152 partner limits assumed): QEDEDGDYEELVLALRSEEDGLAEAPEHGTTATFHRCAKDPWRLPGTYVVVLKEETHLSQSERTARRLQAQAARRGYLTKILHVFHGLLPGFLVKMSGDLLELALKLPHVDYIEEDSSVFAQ

Max % inhibition	pIC50	SMILES
59.45%	8.32	COCC(=O)N1CCn2c(nnc2-c2ccc(Oc3cc(Cl)ccc3CN3C(=O)C[C@@H](Cc4ccccc4)C(=O)N(C)[C@@H](C)CNC(=O)C[C@H](Cc4ccc(Cl)cc4)N(C)C(=O)[C@H](COC)NC(=O)[C@@H]3C)cc2)C1 [Compound 116, (2S,5S,8S,13S,16R)-16-benzyl-1-(4-chloro-2-(4-(7-(2-methoxyacetyl)-5,6,7,8-tetrahydro-[1,2,4]triazolo[4,3-a]pyrazin-3-yl)phenoxy)benzyl)-8-(4-chlorobenzyl)-5-(methoxymethyl)-2,7,13,14-tetramethyl-1,4,7,11,14-pentaazacyclooctadecane-3,6,10,15,18-pentaone]
94.82%	8.68	COC[C@@H]1NC(=O)[C@H](C)N(Cc2ccc(Cl)cc2Oc2ccc(-c3cnc(CN4CC[C@H](O)C4)n3C)cc2)C(=O)C[C@@H](Cc2ccccc2)C(=O)N(C)[C@@H](C)CNC(=O)C[C@H](Cc2ccc(Cl)cc2)N(C)C1=O [Compound 220, (2S,5S,8S,13S,16R)-16-benzyl-1-(4-chloro-2-(4-(2-(((S)-3-hydroxypyrrolidin-1-yl)methyl)-1-methyl-1H-imidazol-5-yl)phenoxy)benzyl)-8-(4-chlorobenzyl)-5-(methoxymethyl)-2,7,13,14-tetramethyl-1,4,7,11,14-pentaazacyclooctadecane-3,6,10,15,18-pentaone]
103.39%	9.22	COC[C@@H]1NC(=O)[C@H](C)N(Cc2ccc(Cl)cc2Oc2ccc(-c3cnc(CN(C)C)n3C)cc2)C(=O)C[C@@H](Cc2ccccc2)C(=O)N(C)[C@@H](C)[C@H](C)NC(=O)C[C@H](Cc2ccc(Cl)cc2)N(C)C1=O [Compound 186, (2S,5S,8S,12S,13S,16R)-16-benzyl-1-(4-chloro-2-(4-(2-((dimethylamino)methyl)-1-methyl-1H-imidazol-5-yl)phenoxy)benzyl)-8-(4-chlorobenzyl)-5-(methoxymethyl)-2,7,12,13,14-pentamethyl-1,4,7,11,14-pentaazacyclooctadecane-3,6,10,15,18-pentaone]
68.37%	8.03	CC[C@H](c1ncc(-c2ccc(Oc3cc(Cl)ccc3CN3C(=O)C[C@@H](Cc4ccccc4)C(=O)N(C)[C@H]4CCCC[C@@H]4NC(=O)C[C@H](Cc4ccc(Cl)cc4)N(C)C(=O)[C@H](COC)NC(=O)[C@@H]3C)cc2)n1C)N(C)C [Compound 268, (4S,7S,10S,14R,16aS,20aS)-14-benzyl-11-(4-chloro-2-(4-(2-((R)-1-(dimethylamino)propyl)-1-methyl-1H-imidazol-5-yl)phenoxy)benzyl)-4-(4-chlorobenzyl)-7-(methoxymethyl)-5,10,16-trimethylhexadecahydrobenzo[l][1,4,7,11,14]pentaazacyclooctadecine-2,6,9,12,15(3H)-pentaone]
101.53%	8.96	COC[C@H]1CNC(=O)C[C@H](Cc2ccc(Cl)cc2)N(C)C(=O)[C@H](COC)NC(=O)[C@H](C)N(Cc2ccc(Cl)cc2Oc2ccc(-c3cnc(CN(C)C)n3C)cc2)C(=O)C[C@@H](Cc2ccccc2)C(=O)N1C [Compound 27, (2S,5S,8S,13R,16R)-16-benzyl-1-(4-chloro-2-(4-(2-((dimethylamino)methyl)-1-methyl-1H-imidazol-5-yl)phenoxy)benzyl)-8-(4-chlorobenzyl)-5,13-bis(methoxymethyl)-2,7,14-trimethyl-1,4,7,11,14-pentaazacyclooctadecane-3,6,10,15,18-pentaone]
90.08%	6.15	C[C@H]1CNC(=O)C[C@H](Cc2ccc(Cl)cc2)N(C)C(=O)[C@H](CCC(=O)O)NC(=O)[C@H](C)N(Cc2ccc(Cl)cc2Oc2ccc(-c3cnc(CN(C)C)n3C)cc2)C(=O)C[C@@H](Cc2ccccc2)C(=O)N1C [Compound 233, 3-((2S,5S,8S,13S,16R)-16-benzyl-1-(4-chloro-2-(4-(2-((dimethylamino)methyl)-1-methyl-1H-imidazol-5-yl)phenoxy)benzyl)-8-(4-chlorobenzyl)-2,7,13,14-tetramethyl-3,6,10,15,18-pentaoxo-1,4,7,11,14-pentaazacyclooctadecan-5-yl)propanoic acid]
102.02%	7.94	COC[C@@H]1NC(=O)[C@H](CC(=O)OC(C)(C)C)N(Cc2ccc(Cl)cc2Oc2ccc(-c3cnc(CN(C)C)n3C)cc2)C(=O)C[C@@H](Cc2ccccc2)C(=O)N(C)[C@@H](C)CNC(=O)C[C@H](Cc2ccc(Cl)cc2)N(C)C1=O [Compound 174, tert-butyl 2-((2S,5S,8S,13S,16R)-16-benzyl-1-(4-chloro-2-(4-(2-((dimethylamino)methyl)-1-methyl-1H-imidazol-5-yl)phenoxy)benzyl)-8-(4-chlorobenzyl)-5-(methoxymethyl)-7,13,14-trimethyl-3,6,10,15,18-pentaoxo-1,4,7,11,14-pentaazacyclooctadecan-2-yl)acetate]
104.13%	9.10	CCc1ccc(CN2C(=O)C[C@@H](Cc3ccccc3)C(=O)N(C)[C@@H](C)CNC(=O)C[C@H](Cc3ccc(Cl)cc3)N(C)C(=O)[C@H](COC)NC(=O)[C@@H]2C)c(Oc2ccc(-c3cnc(CN4CCCC4)n3C)cc2)c1.Cl [Compound 150, (2S,5S,8S,13S,16R)-16-benzyl-8-(4-chlorobenzyl)-1-(4-ethyl-2-(4-(1-methyl-2-(pyrrolidin-1-ylmethyl)-1H-imidazol-5-yl)phenoxy)benzyl)-5-(methoxymethyl)-2,7,13,14-tetramethyl-1,4,7,11,14-pentaazacyclooctadecane-3,6,10,15,18-pentaone hydrochloride]
90.79%	8.70	COC[C@@H]1NC(=O)[C@H](C)N(Cc2ccc(Cl)cc2Oc2ccc(-c3cnc(CN4CCCC4)n3C)cc2)C(=O)C[C@@H](Cc2ccccc2)C(=O)N(C)[C@H]2CCCC[C@@H]2NC(=O)C[C@H](Cc2ccc(Cl)cc2)N(C)C1=O [Compound 203, (4S,7S,10S,14R,16aS,20aS)-14-benzyl-11-(4-chloro-2-(4-(1-methyl-2-(pyrrolidin-1-ylmethyl)-1H-imidazol-5-yl)phenoxy)benzyl)-4-(4-chlorobenzyl)-7-(methoxymethyl)-5,10,16-trimethylhexadecahydrobenzo[l][1,4,7,11,14]pentaazacyclooctadecine-2,6,9,12,15(3H)-pentaone]
84.24%	9.40	COC[C@@H]1NC(=O)[C@H](CCN(C)C)N(Cc2ccc(Cl)cc2Oc2ccc(-c3cnc(CN(C)C)n3C)cc2)C(=O)C[C@@H](Cc2ccccn2)C(=O)N(C)[C@H]2CCCC[C@@H]2NC(=O)C[C@H](Cc2ccc(Cl)cc2)N(C)C1=O [Compound 250, (4S,7S,10S,14R,16aS,20aS)-11-(4-chloro-2-(4-(2-((dimethylamino)methyl)-1-methyl-1H-imidazol-5-yl)phenoxy)benzyl)-4-(4-chlorobenzyl)-10-(2-(dimethylamino)ethyl)-7-(methoxymethyl)-5,16-dimethyl-14-(pyridin-2-ylmethyl)hexadecahydrobenzo[l][1,4,7,11,14]pentaazacyclooctadecine-2,6,9,12,15(3H)-pentaone]
